Test results: ChEMBL document CHEMBL1667756, “Design, synthesis and antibacterial activity of 3-methylenepyrrolidine formyl hydroxyamino derivatives as novel peptide deformylase inhibitors” (2011)
Converted amounts (≈) assume the structure as drawn.

How the values were obtained:
Format in all cases: functional
[1] = tested on: Staphylococcus epidermidis; experiment: Antibacterial activity against methicillin-resistant Staphylococcus epidermidis by agar dilution method
[2] = tested on: Staphylococcus aureus; experiment: Antibacterial activity against methicillin-resistant Staphylococcus aureus by agar dilution method
[3] = tested on: Streptococcus pneumoniae; experiment: Antibacterial activity against penicillin-susceptible Streptococcus pneumoniae by agar dilution method
[4] = tested on: Staphylococcus aureus; experiment: Antibacterial activity against methicillin-resistant Staphylococcus aureus ATCC 43300 by broth micro dilution technique
[5] = tested on: Streptococcus pneumoniae; experiment: Antibacterial activity against penicillin-resistant Streptococcus pneumoniae by agar dilution method
[6] = tested on: Staphylococcus aureus; experiment: Antibacterial activity against methicillin-susceptible Staphylococcus aureus by agar dilution method
[7] = tested on: Staphylococcus epidermidis; experiment: Antibacterial activity against methicillin-resistant Staphylococcus epidermidis ATCC 12228 by broth micro dilution technique
[8] = tested on: Staphylococcus epidermidis; experiment: Antibacterial activity against methicillin-susceptible Staphylococcus epidermidis by agar dilution method
[9] = tested on: Haemophilus influenzae; experiment: Antibacterial activity against Haemophilus influenzae by agar dilution method
[10] = tested on: Staphylococcus aureus; experiment: Antibacterial activity against methicillin-susceptible Staphylococcus aureus ATCC 29213 by broth micro dilution technique
[11] = tested on: Staphylococcus aureus; experiment: Antibacterial activity against Staphylococcus aureus ATCC 25923 by broth micro dilution technique
[12] = tested on: Moraxella catarrhalis; experiment: Antibacterial activity against Moraxella catarrhalis 1502 by broth micro dilution technique
[13] = tested on: Streptococcus pyogenes; experiment: Antibacterial activity against Streptococcus pyogenes 1307006P by broth micro dilution technique
[14] = tested on: Staphylococcus aureus; experiment: Antibacterial activity against Staphylococcus aureus OXFORD by broth micro dilution technique
[15] = tested on: Haemophilus influenzae; experiment: Antibacterial activity against Haemophilus influenzae Q1 by broth micro dilution technique
[16] = tested on: Streptococcus pneumoniae; experiment: Antibacterial activity against Streptococcus pneumoniae N1387 by broth micro dilution technique
[17] = tested on: Haemophilus influenzae; experiment: Antibacterial activity against Haemophilus influenzae H128 by broth micro dilution technique
[18] = tested on: Staphylococcus aureus; experiment: Antibacterial activity against Staphylococcus aureus WCUH29 by broth micro dilution technique
[19] = tested on: Escherichia coli; experiment: Antibacterial activity against Escherichia coli by broth micro dilution technique
[20] = tested on: Enterococcus faecalis; experiment: Antibacterial activity against Enterococcus faecalis by broth micro dilution technique
[21] = tested on: Streptococcus pneumoniae; experiment: Antibacterial activity against Streptococcus pneumoniae 1629 by broth micro dilution technique
[22] = tested on: Streptococcus pneumoniae; experiment: Antibacterial activity against Streptococcus pneumoniae ERY2 by broth micro dilution technique
[23] = tested on: Haemophilus influenzae; experiment: Antibacterial activity against AcrA deficient Haemophilus influenzae H128 by broth micro dilution technique
[24] = tested on: Streptococcus pyogenes; experiment: Antibacterial activity against Streptococcus pyogenes 1308007P by broth micro dilution technique
[25] = tested on: Enterococcus faecium; experiment: Antibacterial activity against Enterococcus faecium X7501 by broth micro dilution technique

Structure (SMILES) | MIC [1] [µg/mL] | MIC [2] [µg/mL] | MIC [3] [µg/mL] | MIC [4] [µg/mL] | MIC [5] [µg/mL] | MIC [6] [µg/mL] | MIC [7] [µg/mL] | MIC [8] [µg/mL] | MIC [9] [µg/mL] | MIC [10] [µg/mL] | MIC [11] [µg/mL] | other results
C=C1C[C@@H](C(=O)Nc2ccc(F)cc2)N(C(=O)[C@H](CC2CCCC2)CN(O)C=O)C1 | 0.25 (≈ 0.599 µM) | 0.25 (≈ 0.599 µM) | 0.25 (≈ 0.599 µM) | 0.5 (≈ 1.2 µM) | 0.25 (≈ 0.599 µM) | 1 (≈ 2.4 µM) | 1 (≈ 2.4 µM) | 0.5 (≈ 1.2 µM) | 4 (≈ 9.58 µM) | 2 (≈ 4.79 µM) | 1 (≈ 2.4 µM) | 
C=C1C[C@@H](C(=O)Nc2ccc(F)cn2)N(C(=O)[C@H](CC2CCCC2)CN(O)C=O)C1 | 0.5 (≈ 1.19 µM) | 0.25 (≈ 0.597 µM) | 0.25 (≈ 0.597 µM) | 0.0625 (≈ 0.149 µM) | 0.25 (≈ 0.597 µM) | 0.5 (≈ 1.19 µM) | 0.125 (≈ 0.299 µM) | 0.5 (≈ 1.19 µM) | 2 (≈ 4.78 µM) | 1 (≈ 2.39 µM) | 0.5 (≈ 1.19 µM) | 
C=C1C[C@@H](C(=O)Nc2ccc(F)c[n+]2[O-])N(C(=O)[C@H](CC2CCCC2)CN(O)C=O)C1 | 0.25 (≈ 0.575 µM) | 0.125 (≈ 0.288 µM) | 0.25 (≈ 0.575 µM) | 0.125 (≈ 0.288 µM) | 0.0625 (≈ 0.144 µM) | 0.5 (≈ 1.15 µM) | 0.5 (≈ 1.15 µM) | 0.125 (≈ 0.288 µM) | 2 (≈ 4.6 µM) | 2 (≈ 4.6 µM) | 0.125 (≈ 0.288 µM) | 
C=C1C[C@@H](C(=O)Nc2ncc(C)s2)N(C(=O)[C@H](CC2CCCC2)CN(O)C=O)C1 | 0.5 (≈ 1.19 µM) | 0.0625 (≈ 0.149 µM) | 0.25 (≈ 0.594 µM) | 0.0625 (≈ 0.149 µM) | 0.25 (≈ 0.594 µM) | 1 (≈ 2.38 µM) | 0.125 (≈ 0.297 µM) | 1 (≈ 2.38 µM) | 1 (≈ 2.38 µM) | 0.5 (≈ 1.19 µM) | 0.0625 (≈ 0.149 µM) | 
CCCC[C@H](CN(O)C=O)C(=O)N1CCC[C@H]1C(=O)Nc1ccc(F)c[n+]1[O-] | 0.125 (≈ 0.315 µM) | 0.125 (≈ 0.315 µM) | 0.125 (≈ 0.315 µM) | 0.5 (≈ 1.26 µM) | 0.5 (≈ 1.26 µM) | 0.5 (≈ 1.26 µM) | 1 (≈ 2.52 µM) | 0.5 (≈ 1.26 µM) | 2 (≈ 5.05 µM) | 2 (≈ 5.05 µM) | 0.5 (≈ 1.26 µM) | 
CC1(C)S[C@@H]2[C@H](NC(=O)[C@H](N)c3ccc(O)cc3)C(=O)N2[C@H]1C(=O)O [AMOXICILLIN] |  |  |  |  |  |  |  |  |  |  |  | MIC [12]: ≤ 0.06 µg/mL; MIC [13]: ≤ 0.06 µg/mL; MIC [14]: 0.125 µg/mL (≈ 0.342 µM); MIC [15]: 0.25 µg/mL (≈ 0.684 µM); MIC [16]: 2 µg/mL (≈ 5.47 µM); MIC [17]: 32 µg/mL (≈ 87.6 µM); MIC [18]: 64 µg/mL (≈ 175 µM); MIC [19]: 1 µg/mL (≈ 2.74 µM); MIC [20]: 0.5 µg/mL (≈ 1.37 µM); MIC [21]: ≤ 0.06 µg/mL; MIC [22]: ≤ 0.06 µg/mL; MIC [23]: 64 µg/mL (≈ 175 µM); MIC [24]: ≤ 0.06 µg/mL; MIC [25]: 16 µg/mL (≈ 43.8 µM)
O=C(O)c1cn(C2CC2)c2cc(N3CCNCC3)c(F)cc2c1=O [CIPROFLOXACIN] | 1 (≈ 3.02 µM) | 1 (≈ 3.02 µM) | 2 (≈ 6.04 µM) | 1 (≈ 3.02 µM) |  | 1 (≈ 3.02 µM) | 0.25 (≈ 0.754 µM) | 0.25 (≈ 0.754 µM) | 0.125 (≈ 0.377 µM) | 0.5 (≈ 1.51 µM) | 0.5 (≈ 1.51 µM) | 
CC(=O)NC[C@H]1CN(c2ccc(N3CCOCC3)c(F)c2)C(=O)O1 [LINEZOLID] | 1 (≈ 2.96 µM) | 0.5 (≈ 1.48 µM) |  |  |  | 1 (≈ 2.96 µM) | 0.5 (≈ 1.48 µM) | 1 (≈ 2.96 µM) |  |  |  | 
CC1(C)S[C@@H]2[C@H](NC(=O)Cc3ccccc3)C(=O)N2[C@H]1C(=O)O [PENICILLIN G] | 64 (≈ 191 µM) | 64 (≈ 191 µM) | 2 (≈ 5.98 µM) | 64 (≈ 191 µM) | 64 (≈ 191 µM) | 0.5 (≈ 1.5 µM) | 2 (≈ 5.98 µM) | 4 (≈ 12 µM) | 16 (≈ 47.8 µM) | 1 (≈ 2.99 µM) | 0.0625 (≈ 0.187 µM) | 
CN[C@H](CC(C)C)C(=O)N[C@H]1C(=O)N[C@@H](CC(N)=O)C(=O)N[C@H]2C(=O)N[C@H]3C(=O)N[C@H](C(=O)N[C@H](C(=O)O)c4cc(O)cc(O)c4-c4cc3ccc4O)[C@H](O)c3ccc(c(Cl)c3)Oc3cc2cc(c3O[C@@H]2O[C@H](CO)[C@@H](O)[C@H](O)[C@H]2O[C@H]2C[C@](C)(N)[C@H](O)[C@H](C)O2)Oc2ccc(cc2Cl)[C@H]1O [VANCOMYCIN] |  |  | 1 (≈ 0.69 µM) |  | 1 (≈ 0.69 µM) |  |  |  |  |  |  | 
